Data reported in patent US20220372441A1, “MICRORNAS ENRICHED IN MEGAKARYOCYTIC EXTRACELLULAR VESICLES AND USES THEREOF” (University of Delaware, priority 2019, published 2022).

Tests used:
CD34+ HSPCs [1] = experiment: Signaling-inhibitor experiments: MkMP-induced Mk differentiation of inhibitor-pretreated CD34+ HSPCs; details: for percent of cells CD34−CD41+: day 12, representative quadrant plots (FIG. 11E); for fraction of cells CD34+CD41−: day 7, representative quadrant plots (FIG. 11E)
Experimental: Signaling-inhibitor experiments: 60,000 CD34^+ HSPCs were pretreated with signaling inhibitors for 30 min, followed by co-culture with MkMPs (30 MPs per cell) in IMDM supplemented with 10% BIT 9500 and 50 ng/mL SCF. Inhibitors were replenished at days 3 and 7. At day 4, 7 and 12, cells were harvested for flow cytometric analysis of CD41, CD42b, and CD34 expression. Total-cell and Mk counts were measured at day 7.
To further investigate the effects of MkMPs in promoting megakaryocytic differentiation of CD34^+ HSPCs, and how this might relate to the miR content of MkMPs, we next probed likely signaling pathways using kinase inhibitors. […] Briefly, CD34^+ HSPCs were pretreated with kinase inhibitors of chosen signaling pathways (JNK, p38, MEK, PI3K, Akt and mTOR inhibitors, Table 6) for 30 min before they were co-cultured with MkMPs at the ratio of 10 MkMPs/cell. Inhibitors were replenished at days 3 and 7. CD41, CD42b and CD34 expression, and cell numbers were measured at days 4, 7, and 12.

PTEN [2] = experiment: PTEN protein expression by flow cytometry in CD34+ HSPCs; type: cell-based, human; details: JNK inhibitor pretreatment, MkMP co-culture 24 hours (FIG. 13A)
Experimental: Cells were fixed in 4% paraformaldehyde for 15 min at room temperature, followed by the permeabilization in 90% methanol for 30 min at 4° C. After washing in PBS, cells were stained with Alexa 647-conjugated anti-mTOR (#5048S), PE-conjugated anti-Akt (#8790S), or Alexa 488-conjugated anti-p-Akt (#4071S) antibodies from Cell Signaling, or Alexa 647-conjugated anti-p-mTOR (#564242) from BD bioscience, for 1 hour at room temperature, followed by flow-cytometric analysis.
Phosphatase and TENsin homolog (PTEN) is a negative regulator of PI3K/Akt signaling in HSC development. Loss of PTEN results in enhanced cellular proliferation and megakaryopoiesis due to overactive of PI3K/Akt signaling. We hypothesized that activation of PI3K/Akt/mTOR signaling by MkMPs might be PTEN mediated. We thus examined the mRNA level of PTEN by quantitative PCR, and PTEN protein level by flow cytometry and immunoblotting. The impact on PTEN mRNA levels appears higher than that on protein levels. Compared to the vehicle control, PTEN protein or mRNA levels were around 10% or 30% lower, respectively, in HSPCs co-cultured with MkMPs (FIGS. 13A and 13B). […] These statistically-significant but relatively low-impact effects on PTEN protein expression would be expected given that the measurements were done within the first 24 hours of the co-culture, rather than late in the co-culture.

PTEN [3] = experiment: PTEN mRNA level by qRT-PCR in CD34+ HSPCs; type: cell-based, human; details: JNK inhibitor pretreatment, MkMP co-culture 24 hours (FIG. 13B)
Experimental: Quantitative reverse transcription PCR (qRT-PCR): CD34^+ HSPCs pretreated with JNK inhibitor or solution without an inhibitor were co-cultured with MkMPs, non-targeting miR-loaded MkMPs, miR-486-5p inhibitor-loaded MkMPs at 30 MPs per cell, or vehicle control. At 24 hr, cells were harvested and total RNA was isolated, reversed transcribed for qPCR assay as described by Kao and Papoutsakis (Sci Adv. 2018; 4:eaau6762). qPCR assays for PTEN and GAPDH were performed with PerfeCTa SYBR Green Supermix (QuantaBio) and the following primers: Forward (5′-[…]-3′) (SEQ ID NO: 1), Reverse (5′-[…]-3′) (SEQ ID NO: 2) for PTEN, and Forward (5′-[…]-3′) (SEQ ID NO: 3), Reverse (5′-[…]-3′) (SEQ ID NO: 4) for GAPDH. PTEN mRNA level were quantified by normalized to GAPDH mRNA level as the reference gene.
Phosphatase and TENsin homolog (PTEN) is a negative regulator of PI3K/Akt signaling in HSC development. Loss of PTEN results in enhanced cellular proliferation and megakaryopoiesis due to overactive of PI3K/Akt signaling. We hypothesized that activation of PI3K/Akt/mTOR signaling by MkMPs might be PTEN mediated. We thus examined the mRNA level of PTEN by quantitative PCR, and PTEN protein level by flow cytometry and immunoblotting. The impact on PTEN mRNA levels appears higher than that on protein levels. […]

CD34+ HSPCs [4] = experiment: Transfection of CD34+ HSPCs with miR mimics, culture without TPO; flow cytometry of CD41/CD42b, Mk and total cell counts; type: cell-based, human
Experimental: Transfection of CD34^+ HSPCs with miR mimics: 200,000 CD34^+ cells were freshly thawed and cultured in IMDM supplemented with 20% BIT 9500, and 100 ng/mL SCF. After 3 hours, cells were transfected with 8 μM of miR mimics, non-targeting miR (miR-NC), or without miR (No miR) using the Amaxa Nucleofector II with program U-08. […] Cells cultured in TPO-supplemented medium (100 ng/ml TPO), or co-cultured with MkMPs served as positive controls (TPO, MkMP). The medium was replaced one day after transfection. […] At day 13, cells were harvested for serotonin (5-HT), von willebrand factor (vWF), beta 1 tubulin (TUBB1), and DAPI staining, as described^7. The images were taken by ZEISS LSM 880 multiphoton confocal microscope. At day 16, cells were harvested for ploidy analysis by flow-cytometric analysis as described by Lindsey and Papoutsakis (Br J Haematol. 2011; 152(4):469-484).
To determine if there is a dose effect of miR mimics on Mk differentiation of HSPCs, using CD41 expression as the key early Mk-differentiation marker, we carried out a pilot study with two donor CD34^+-cell samples. CD34^+ HSPCs were transfected with high (8 μM) or low (2 μM) concentrations of miR-486-5p or miR-22-3p (generally known as miR-22) mimics were and cultured without TPO. […]

[5] = day 7, MkMP co-culture, inhibitor 10 uM (FIG. 11A)

Compound | percent of cells CD34−CD41+ (CD34+ HSPCs [1]) [%] | CD41 expression (CD34+ HSPCs [1]; [5]) [%] | fraction of cells CD34+CD41− (CD34+ HSPCs [1]) [%] | further results
O=c1cc(N2CCOCC2)oc2c(-c3ccccc3)cccc12 [LY-294002] | 16.5 |  |  | 
CO[C@H]1C[C@@H]2CC[C@@H](C)[C@@](O)(O2)C(=O)C(=O)N2CCCC[C@H]2C(=O)O[C@H]([C@H](C)C[C@@H]2CC[C@@H](O)[C@H](OC)C2)CC(=O)[C@H](C)/C=C(\C)[C@@H](O)[C@@H](OC)C(=O)[C@H](C)C[C@H](C)/C=C/C=C/C=C/1C [Rapamycin] | 6.0 | 32.1 | 48.3 | 
C[S+]([O-])c1ccc(-c2nc(-c3ccncc3)c(-c3ccc(F)cc3)[nH]2)cc1 (centres unmarked) [SB203580] |  |  | 43.4 | CD41 expression (CD34+ HSPCs [1]; day 12, MkMP co-culture, compared to MkMP control (FIG. 11B)): significantly suppressed CD41 expression
Oc1c2ccccc2c2c3c(cccc13)N=N2 [SP600125] | 12.6 | 32.8 | 52.1 | PTEN protein level above vehicle-control level (PTEN [2]): 17%; PTEN mRNA level above vehicle-control level (PTEN [3]): 260%
COC[C@H]1OC(=O)c2coc3c2[C@@]1(C)C1=C(C3=O)[C@@H]2CCC(=O)[C@@]2(C)C[C@H]1OC(C)=O [Wortmannin] | 25.3 |  |  | 
TPO: recombinant human thrombopoietin, 100 ng/ml, positive control |  |  |  | percent of cells expressing CD41 (CD34+ HSPCs [4]; day 13, electroporated CD34+ cells, miR mimics without TPO, TPO 100 ng/ml or MkMP co-culture as positive controls (FIGS. 7A, 7B)): 56%; percent CD41+CD42b+ double positive cells (CD34+ HSPCs [4]; day 13, representative quadrant plots (FIG. 7D)): 38.9%
